These results are taken from patent US20070093460A1, “Methods of using selective 11beta-HSD inhibitors to treat gluocorticoid associated states” (priority 2005, published 2007).

pIC50: −log10 of the molar value. “Also recorded” adds a separate entry of the source.

As a reminder, the pIC50 is the negative decadic logarithm of the IC50, by convention in mol/L.

Data set [1] deals with T1, 11β-HSD1 Dehydrogenase (Rattus norvegicus, UniProt P16232). As to the kind of experiment: 11β-HSD1 dehydrogenase assay in rat Leydig cell homogenates.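 As to all read-outs here: tritiated corticosterone conversion by 11β-HSD1 dehydrogenase in Leydig homogenates with 3 mM NADP at pH 8.4, 37 °C for 10 min, products resolved by HPLC, inhibition relative to uninhibited enzyme.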 The format is biochemical. Further details: Freshly prepared rat Leydig cell homogenates were chosen since they provide a rich and reliable source of both 11β-HSD1 dehydrogenase and reductase; from tissue; host or cells: rat testicular Leydig cells, homogenate. The note with it: for Leydig Cell 11β-HSDl Dehydrogenase [S] = 600 nM: rat Leydig cell homogenates, 600 nM corticosterone, progesterone and androgen derivatives.
T1 sequence (P16232 whole entry): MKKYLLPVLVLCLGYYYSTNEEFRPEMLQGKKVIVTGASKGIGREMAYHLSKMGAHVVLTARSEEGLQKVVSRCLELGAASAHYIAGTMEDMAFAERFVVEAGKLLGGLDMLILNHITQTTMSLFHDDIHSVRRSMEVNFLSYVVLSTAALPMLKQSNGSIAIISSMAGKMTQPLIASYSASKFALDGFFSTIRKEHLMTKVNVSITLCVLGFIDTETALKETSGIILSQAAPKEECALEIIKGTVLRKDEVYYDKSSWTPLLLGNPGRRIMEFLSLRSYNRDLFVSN
Description: (§2) Each enzyme reaction (described below) was stopped by adding 750 μL MeOH. After centrifugation, an aliquot of supernatant was analyzed by HPLC using a DuPont Zorbax C8 column.
(§3) 11β-HSD1 dehydrogenase was assayed by incubating homogenates (13,000 cells equivalent) with 600 nM [^3H]-B (0.5 μCi) in the presence of 3 mM NADP, 50 mM Tris-HCl; pH 8.4 at 37° C. for 10 minutes in a total volume of 250 μL. 11β-HSD1 reductase was assayed by incubating homogenates (52,000 cells equivalent) with 600 nM [^3H]-11-dehydro-corticosterone in presence of 3 mM NADPH, 50 mM Tris-HCl; pH 7.4 at 37° C. for 20 minutes in a total volume of 250 μL.
(§4) Each concentration was tested in triplicate and the dose response curve, showing percentage inhibition versus log concentration of steroid was plotted. The data fitted a log-linear straight line.

The target in data set [2] is T2, 11β-HSD1 Reductase (Rattus norvegicus, UniProt P16232). As to the kind of experiment: 11β-HSD1 reductase assay in rat Leydig cell homogenates.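 As to all read-outs here: rat Leydig cell homogenate incubated 20 min at 37 °C, pH 7.4, with tritiated 11-dehydro-corticosterone and 3 mM NADPH, product measured by HPLC, inhibition from triplicate dose–response curves.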 The settings on record: for inhibitors of 11β-HSD1 reductase (summary in words): summary of the screening.
T2 sequence (P16232 whole entry): as above
Description: as §2, §3, §4
Data set [3] deals with rat aortic rings. As to the kind of experiment: Contractile response of rat aortic rings to phenylephrine. The format is cell-based. The note with it: 24 h; for effect on the ability of 11-dehydro-corticosterone to amplify the contractile response to phenylephrine: 11-dehydro-corticosterone 100 nmol/L, antisense 3 μmol/L vs nonsense; for contractile response to phenylephrine of rings incubated with corticosterone and antisense: corticosterone 10 nmol/L + antisense 3 μmol/L, compared with nonsense oligomers. The method, then: Male Sprague-Dawley (150-200 g) rats were anesthetized with pentobarbital (50 mg/kg IP), and a median sternotomy was performed followed by the rapid removal of the thoracic aorta. The adventitia was removed, but the endothelium was left intact. The aorta was cut into 2-3 mm rings and individual rings were placed into a single well of a twenty four well culture plate and incubated at 37° C. under 95% 02-5% CO2. Each well contained 1 mL of DMEM/F12 containing 1% fetal bovine serum, streptomycin (100 μg/ml), penicillin (100 units/ml) and amphotericin (0.25 μg/ml). Aortic rings were incubated for 24 hours prior to contractility measurements with the following combinations of steroids, and antisense/nonsense oligonucleotides (3 μmol/L):
Antisense phosphorothioate oligonucleotides, targeted to block either 11β-HSD2 or 11β-HSD1 gene expression, were obtained from Research Genetics, Huntsville Ala. Antisense oligomers complementary to 20 bp sequences spanning the ribosome binding/translation start site were used. Oligomer sequences were: 5′-CATAACTGCCGTCCAACAGC-3′ (SEQ ID NO. 1) for 11β-HSD1 Antisense and 5′-AGGCCAGCGCTCCATGACTT-3′ (SEQ ID NO 2) for 11β-HSD2 antisense. In control experiments the corresponding sense sequence was used as the nonsense oligomer. Antisense and nonsense oligomers were added directly to each well at 20 μg/10:1 sterile H2O per well for a final concentration of 3 μmol/L.
For contraction measurements, aortic rings were suspended by tungsten wires with 1 g of tension and placed in a vessel bath containing serum free DMEM/F12 media at 37° C. aerated with 95% O2-5% CO2, at pH 7.4. Vessels were equilibrated for 20 minutes and then tested with phenylephrine (1 nmol/L-10 μmol/L). Although phenylephrine is structurally not a catecholamine, it is considered to be a functional catecholamine as it activates both a and P adrenoceptors. Due to its favorable stability characteristics, it is widely used as a catecholamine substitute in experiments of this nature. The intensity of contraction was assessed by use of a Narishige micromanipulator and model FT03 force transducer (Grass Instrument Co. West Warwick, R.I.). Measurements were recorded on computer using the Labview 4.1 Virtual Instrument System (National Instruments, Austin, Tex.).

The target in the next data set is T3, 11β-HSD2 Dehydrogenase (Ovis aries, UniProt P50168).
T3 sequence (P50168 1-427): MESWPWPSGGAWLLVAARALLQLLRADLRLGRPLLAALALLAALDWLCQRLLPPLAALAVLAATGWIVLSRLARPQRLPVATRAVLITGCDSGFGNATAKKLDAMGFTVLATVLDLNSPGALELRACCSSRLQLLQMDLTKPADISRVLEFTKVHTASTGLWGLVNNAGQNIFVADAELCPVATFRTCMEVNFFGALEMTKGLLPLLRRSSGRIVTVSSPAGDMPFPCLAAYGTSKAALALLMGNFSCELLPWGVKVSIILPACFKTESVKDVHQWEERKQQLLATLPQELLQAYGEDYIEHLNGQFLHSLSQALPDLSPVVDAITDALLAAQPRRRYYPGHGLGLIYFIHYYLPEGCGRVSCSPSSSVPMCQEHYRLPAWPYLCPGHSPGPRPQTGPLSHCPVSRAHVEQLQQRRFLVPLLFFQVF
Description: Table 1: inhibition of 11β-HSD2 dehydrogenase. It counts as biochemical. The note with it: Table 1, inhibition in words.

The target in data set [4] is T4, 11β-HSD2 (Ovis aries, UniProt P50168).
T4 construct: incubating sheep kidney microsomal fraction (6.5 μg protein) with 50 nM corticosterone; from tissue; host or cells: sheep kidney microsomal fraction
T4 sequence (P50168 1-427): T3 sequence (P50168 1-427)
Description: 11β-HSD2 enzyme activity in sheep kidney microsomes. It counts as biochemical. An excerpt: The enzymatic reaction was termninated by addition of methanol and synthesis of 11-dehydro-corticosterone was quantitated by HPLC as described above.

In data set [5] the target is T1, 11β-HSD1 Dehydrogenase. As to the kind of experiment: Table 1: inhibition of 11β-HSD1 dehydrogenase. The format is biochemical. The note with it: Table 1, inhibition in words.
The target in data set [6] is T2, 11β-HSD1 Reductase. As to the kind of experiment: Table 1: inhibition of 11β-HSD1 reductase. The format is biochemical. The settings on record: Table 1, inhibition in words.
The target in data set [7] is T5, 11β-HSD1-reductase activity (Rattus norvegicus, UniProt P16232).
T5 construct: from tissue; host or cells: rat aortic rings (intact tissue, 24 h incubation)
T5 sequence (P16232 whole entry): as the sequence (P16232 whole entry) above
As to the kind of experiment: Metabolism of 3H-11-dehydrocorticosterone back to corticosterone by aortic rings. The format is cell-based. The settings on record: 24 hours, compared with nonsense oligomers. The method, then: (§1) The effects of 11β-HSD1 and 11β-HSD2 antisense on the inter-conversion of ^3H-corticosterone and ^3H-11-dehydro-corticosterone by aortic rings was also determined. Rings (2-3 mm) obtained in a similar manner as those in the contraction studies, were incubated in 1 ml DMEM/F12 media containing 1% FBS at 37° C. under 95% O2-5% CO2 in 24-well culture plates. Rings were incubated for 24 hours with:
(ii) ^3H-11β-dehydro-corticosterone (10 nmol/L)±11β-HSD1 antisense (3 μmol/L); this experiment was performed in duplicate (n=10 aortic rings per well). Control groups were incubated with the appropriate nonsense oligomer. ^3H-corticosterone in the incubation medium after 24 hrs was then measured. In this experiment, aortic rings were also analyzed for ^3H-corticosterone content. Rings from duplicate incubations (total n=20) were blotted dry, pooled and homogenized in 50% methanol using a Polytron. The homogenates were then centrifuged, extracted as below using Sep-Paks and injected onto a HPLC system for analysis.
Incubation media was collected, ran through a Sep-Pak and eluted with 3 mls of methanol, the eluate was then dried under nitrogen and reconstituted in 500:1 methanol. The aortic rings were dried and weighed. […] Steroids were observed by monitoring radioactivity on-line with a Packard Radiomatic Flo-One/Beta Series A-500 counter connected to a Dell Optiflex 425 S/L computer. […]

Data set [8] concerns the target T6, 11β-HSD2 (Homo sapiens, UniProt P80365).
T6 sequence (P80365 1-405): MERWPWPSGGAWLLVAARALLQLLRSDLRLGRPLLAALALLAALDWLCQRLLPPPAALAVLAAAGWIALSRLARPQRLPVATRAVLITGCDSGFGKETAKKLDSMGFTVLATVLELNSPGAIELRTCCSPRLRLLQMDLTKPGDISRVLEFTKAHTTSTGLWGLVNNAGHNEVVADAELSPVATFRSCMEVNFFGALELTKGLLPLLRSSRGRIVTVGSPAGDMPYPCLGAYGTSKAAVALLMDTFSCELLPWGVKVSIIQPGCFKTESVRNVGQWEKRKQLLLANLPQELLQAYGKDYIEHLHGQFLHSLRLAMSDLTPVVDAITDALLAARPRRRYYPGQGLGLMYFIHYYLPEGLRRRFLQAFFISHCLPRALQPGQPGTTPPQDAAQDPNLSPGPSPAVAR
The settings on record: Monder et al., 1993; Pearson Murphy et al., 1981; cited from earlier work.

The next data set deals with 11β-HSD1 (Homo sapiens, UniProt P28845). The settings on record: Monder et al., 1993; Pearson Murphy et al., 1981; cited from earlier work.
11β-HSD1, sequence (P28845 whole entry, species assumed, canonical isoform): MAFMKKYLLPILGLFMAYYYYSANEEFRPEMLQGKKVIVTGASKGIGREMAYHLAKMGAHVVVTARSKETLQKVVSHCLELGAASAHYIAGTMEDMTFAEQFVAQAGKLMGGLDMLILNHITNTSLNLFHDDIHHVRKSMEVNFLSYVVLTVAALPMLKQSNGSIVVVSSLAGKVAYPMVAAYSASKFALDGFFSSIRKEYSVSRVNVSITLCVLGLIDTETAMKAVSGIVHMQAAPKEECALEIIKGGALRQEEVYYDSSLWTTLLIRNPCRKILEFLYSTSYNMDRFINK
For data set [9], the system named is cultured rat vascular endothelial and smooth muscle cells. As to the kind of experiment: RT-PCR analysis of 11β-HSD isoform expression in cultured cells. It counts as cell-based. The note with it: similar protocol. An excerpt:
Since 11β-HSD2 appears to exist only in endothelial cells, this observation supports a role for the action of glucocorticoids in affecting endothelial cell function. […] Further experiments to determine whether antisense oligomers down-regulate mRNA and protein expression of their respective 11β-HSD isoform under conditions in which they enhance contractile responses in aortic rings will be done.

The subject of data set [10] is rat aortic rings. Description: Conversion of 3H-corticosterone to 11-dehydrocorticosterone by aortic rings. It counts as cell-based. The settings on record: 3H-corticosterone 10 nM, antisense 3 μM, 24 hrs, compared with nonsense oligomers. Here is the method: as §1
(i) ^3H-corticosterone (10 nmol/L)±11β-HSD2 or 11β-HSD1 antisense (3 μmol/L); control groups received nonsense oligomers. The amount of ^3H-11-dehydro-corticqsterone in the incubation medium after 24 hrs was then measured. The effects of 11β-HSD1 antisense/nonsense were measured in quadruplicate (n=6 aortic rings per well) and the effects of 11β-HSD2 antisense/nonsense in duplicate (n=8 aortic rings per well),
Incubation media was collected, ran through a Sep-Pak and eluted with 3 mls of methanol, the eluate was then dried under nitrogen and reconstituted in 500:1 methanol. The aortic rings were dried and weighed. The steroids present in the eluate were separated by high-pressure liquid chromatography with a Dupont Zorbax C8 column eluted at 44° C. at a flow rate of 1 mL/min using 55% methanol for 10 minutes. Steroids were observed by monitoring radioactivity on-line with a Packard Radiomatic Flo-One/Beta Series A-500 counter connected to a Dell Optiflex 425 S/L computer. […]

The mark [11] stands for this setting: listed as 11β-HSD1 antisense oligomers.

In the case of `CC(=O)[C@H]1CC[C@@H]2[C@@H]3CCC4=CC(=O)CC[C@]4(C)[C@@H]3C(=O)C[C@]12C` (stereo in doubt) [11 -Keto-Progesterone, 4-Pregnen-3,11,20-trione], the pIC50 on 11β-HSD1 Dehydrogenase [1] was less than 4.00; against 11β-HSD1 Reductase [2] it was 5.02; on 11β-HSD2 [4], 6.40. In addition, the “Leydig Cell 11β-HSDl Dehydrogenase [S] = 600 nM” value at 11β-HSD1 Dehydrogenase [1] was “inactive”. Also, the “inhibitors of 11β-HSD1 reductase (summary in words)” value at 11β-HSD1 Reductase [2] (listed as 11-Keto-Progesterone) is “potent inhibitors”; on 11β-HSD1 Reductase [2] (listed as 11-keto-progesterone) it was “high potency”. In addition, the “effect on the ability of 11-dehydro-corticosterone to amplify the contractile response to phenylephrine” value in the data set on rat aortic rings [3] is on record as “diminished”. Also, the “11β-HSD2 Dehydrogenase” value at 11β-HSD2 Dehydrogenase is given as “Potent Inhibitor”. Besides, on 11β-HSD2 [4] (summary of the screening, listed as 11-keto-progesterone), the “inhibitors of 11β-HSD2 (summary in words)” value is given as “potent inhibitors; also recorded: high potency”. In addition, the “11β-HSD1 Dehydrogenase” value on 11β-HSD1 Dehydrogenase [5] was “No Inhibition”. Also, the “11β-HSD1 Reductase” value at 11β-HSD1 Reductase [6] was “Selective Inhibitor”. Further, the “production of 3H-corticosterone from 3H-11-dehydrocorticosterone” value in data set [7] is recorded as “decreased the metabolism”.
As for `C[C@]12CCC(=O)C=C1CC[C@@H]1[C@@H]2[C@@H](O)C[C@]2(C)C(=O)CC[C@@H]12` [11β-OH-Androstenedione, 4-Androsten-11β-ol-3,17-dione], the pIC50 was less than 4.00 against 11β-HSD1 Dehydrogenase [1], less than 4.00 against 11β-HSD1 Reductase [2] and 5.11 against 11β-HSD2 [4]. Besides, the “Leydig Cell 11β-HSDl Dehydrogenase [S] = 600 nM” value on 11β-HSD1 Dehydrogenase [1] is “inactive”. Also, the “inhibition of 11β-HSD2 isoform” value at 11β-HSD2 [8] is reported as “poor inhibitor”. Moreover, on 11β-HSD2 [4] (sheep kidney microsomes, corticosterone substrate, progesterone and androgen derivatives), the “Sheep kidney 11β-HSD2 [S] = 50 nM” value is reported as “weak inhibitor”. Further, at 11β-HSD1, the “inhibition of 11β-HSD1 isoform” value is on record as “poor inhibitor”.
Regarding “5′-AGGCCAGCGCTCCATGACTT-3′ (antisense AGGCCAGCGCTCCATGACTT; all phosphorothioate, sugars by position and methylation of C not given here) [11β-HSD2 antisense]”, in the data set on rat aortic rings [3], the “contractile response to phenylephrine of rings incubated with corticosterone and antisense” value is on record as “statistically significant increase; also recorded: significantly (P<0.05) increased”. For the same compound, in data set [9], the “expression of the respective 11β-HSD enzyme isoform” value was “down-regulate the expression”. The “reduction in the conversion of corticosterone to 11-dehydrocorticosterone” value in the data set on rat aortic rings [10] is 24%.
As for “5′-CATAACTGCCGTCCAACAGC-3′ (antisense CATAACTGCCGTCCAACAGC; all phosphorothioate, sugars by position and methylation of C not given here) [11β-HSD1 antisense]”, the “effect on the ability of 11-dehydro-corticosterone to amplify the contractile response to phenylephrine” value with rat aortic rings [3] is listed as “significantly attenuated”; in the data set on rat aortic rings [3] (listed as 11β-HSD1 antisense oligomer), “attenuates”; with rat aortic rings [3] (setting [11]) it was “attenuated”. Further, the “contractile response to phenylephrine of rings incubated with corticosterone and antisense” value is recorded as “significantly increased” in the data set on rat aortic rings [3] and “enhanced the ability of corticosterone to amplify the contractile response” in the data set with rat aortic rings [3] (setting [11]). In addition, the “expression of the respective 11β-HSD enzyme isoform” value in data set [9] is on record as “down-regulate the expression”. Moreover, the “reduction in the conversion of corticosterone to 11-dehydrocorticosterone” value in the data set with rat aortic rings [10] came to 21%. The “production of 3H-corticosterone from 3H-11-dehydrocorticosterone” value in data set [7] is given as “significantly reduce; also recorded: markedly reduced; also recorded: marked decrease”.
